pEC50: −log10 of the molar value.
Key:
medaka Esr1 (mEsr1) [1] = target: T1, medaka Esr1 (mEsr1) (Oryzias latipes, UniProt P50241); experiment: cell-based; set-up: species or system Japanese medaka (Oryzias latipes)
T1 sequence (P50241 1-620): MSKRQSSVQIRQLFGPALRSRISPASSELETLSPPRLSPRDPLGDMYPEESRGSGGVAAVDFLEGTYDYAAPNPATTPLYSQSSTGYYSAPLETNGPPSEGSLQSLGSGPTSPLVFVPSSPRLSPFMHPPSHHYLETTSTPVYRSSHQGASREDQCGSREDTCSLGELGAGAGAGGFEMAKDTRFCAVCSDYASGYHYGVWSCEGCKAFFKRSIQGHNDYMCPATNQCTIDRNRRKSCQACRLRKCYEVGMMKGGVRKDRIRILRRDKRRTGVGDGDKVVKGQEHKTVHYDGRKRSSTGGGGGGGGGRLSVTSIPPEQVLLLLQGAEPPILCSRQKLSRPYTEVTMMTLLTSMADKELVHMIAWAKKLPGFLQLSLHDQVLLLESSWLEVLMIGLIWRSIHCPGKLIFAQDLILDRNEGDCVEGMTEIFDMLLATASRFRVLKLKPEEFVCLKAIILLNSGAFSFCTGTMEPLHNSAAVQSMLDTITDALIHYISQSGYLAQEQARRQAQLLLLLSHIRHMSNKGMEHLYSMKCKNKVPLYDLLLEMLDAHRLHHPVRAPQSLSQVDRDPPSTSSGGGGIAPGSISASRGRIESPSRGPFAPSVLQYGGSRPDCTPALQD

medaka Esr1 (mEsr1) [2] = target: T1, medaka Esr1 (mEsr1); experiment: Medaka Esr1 reporter gene assay, antagonist assay; type: cell-based, Japanese medaka (Oryzias latipes); settings: E2 spiked at 1.0 nM (B); MAC = 1.0 × 10^−4 M
medaka ARβ (mArβ) [3] = target: T2, medaka ARβ (mArβ) (Oryzias latipes, UniProt D1MV73); experiment: Medaka ARβ reporter gene assay, agonist assay; type: cell-based, Japanese medaka (Oryzias latipes); settings: MAC = 1.0 × 10^−4 M
T2 sequence (D1MV73 1-744): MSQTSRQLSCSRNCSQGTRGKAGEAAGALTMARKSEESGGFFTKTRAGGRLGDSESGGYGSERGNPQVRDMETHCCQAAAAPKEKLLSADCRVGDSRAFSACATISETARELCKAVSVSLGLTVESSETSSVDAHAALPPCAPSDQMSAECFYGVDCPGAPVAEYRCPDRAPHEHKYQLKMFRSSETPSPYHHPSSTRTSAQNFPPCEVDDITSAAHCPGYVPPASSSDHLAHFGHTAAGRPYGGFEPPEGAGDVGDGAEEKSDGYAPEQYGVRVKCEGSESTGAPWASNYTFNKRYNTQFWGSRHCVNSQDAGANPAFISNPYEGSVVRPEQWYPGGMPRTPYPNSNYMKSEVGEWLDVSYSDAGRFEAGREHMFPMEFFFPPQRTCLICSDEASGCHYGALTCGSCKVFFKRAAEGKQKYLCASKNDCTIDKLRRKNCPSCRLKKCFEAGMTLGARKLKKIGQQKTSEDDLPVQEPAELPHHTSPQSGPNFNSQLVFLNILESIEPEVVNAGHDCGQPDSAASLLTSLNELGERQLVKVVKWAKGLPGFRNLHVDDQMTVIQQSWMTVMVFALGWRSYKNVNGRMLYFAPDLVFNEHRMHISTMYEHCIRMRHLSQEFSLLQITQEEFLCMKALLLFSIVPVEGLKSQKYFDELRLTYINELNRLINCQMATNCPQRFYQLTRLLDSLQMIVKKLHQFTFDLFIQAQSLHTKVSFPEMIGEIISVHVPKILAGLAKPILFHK

medaka ARβ (mArβ) [4] = target: T2, medaka ARβ (mArβ); experiment: Medaka ARβ reporter gene assay, antagonist assay; type: cell-based, Japanese medaka (Oryzias latipes); settings: 11‐KT spiked at 50 nM (D); MAC = 1.0 × 10^−4 M
[5] = system: Japanese medaka (Oryzias latipes); experiment: Fish Short‐Term Reproduction Assay; type: in vivo; settings: for GSI Female / GSI Male / HSI Female / HSI Male / Length Female / Length Male / Weight Female / Weight Male: completion of exposure
[6] = 9.75 mg/L measured, 21 d, sig. ↓ vs control
[7] = measured concentration 0.357 mg/L
[8] = measured concentration 1.90 mg/L
[9] = measured concentration 9.75 mg/L

## COC(=O)c1ccc(O)cc1 [MPB, 4‐Hydroxybenzoate methyl]
Medaka Esr1 (mEsr1) [1]
  pEC50: 4.15
Medaka Esr1 (mEsr1) [1]; mode of action in which EC50 or PC10 was obtained in RGA
  In vitro positive: Esr: Esr
Medaka Esr1 (mEsr1) [2]
  Antagonistic activity: NE (MAC = 1.0 × 10^−4 M)^(B)
Medaka ARβ (mArβ) [3]
  Agonistic activity: NE (MAC = 1.0 × 10^−4 M)
Medaka ARβ (mArβ) [4]
  Antagonistic activity: NE (MAC = 1.0 × 10^−4 M)^(D)
[5]; 0.357 mg/L measured, 21 d
  Fertility rate: 93 ± 2.9%
  Hepatic VTG, female: 3,450 ± 724 ng/mg‐liver
  Hepatic VTG, male: 1.7 ± 1.2 ng/mg‐liver
  Mortality: 0.0%
  Mortality, number of dead fish: 0
  Number of fertilized eggs (per female per day): 27 ± 3.5
  Number of total eggs (per female per day): 29 ± 3.3
  SSC female (joint plates with papillary processes): 0 ± 0
[5]; 1.90 mg/L measured, 21 d
  Fertility rate: 88 ± 7.7%
  Hepatic VTG, female: 3,890 ± 992 ng/mg‐liver
  Mortality: 0.0%
  Mortality, number of dead fish: 0
  Number of fertilized eggs (per female per day): 24 ± 3.0
  Number of total eggs (per female per day): 28 ± 3.3
  SSC female (joint plates with papillary processes): 0 ± 0
  SSC male (joint plates with papillary processes): 99 ± 12
[5]; 1.90 mg/L measured, 21 d, sig. ↑ vs control
  Hepatic VTG, male: 153 ± 113 ng/mg‐liver
[5]; 9.75 mg/L measured, 21 d
  Hepatic VTG, female: 3,930 ± 963 ng/mg‐liver
  Mortality: 13%
  Mortality, number of dead fish: 3
  SSC female (joint plates with papillary processes): 0 ± 0
  SSC male (joint plates with papillary processes): 93 ± 15
[5]; 9.75 mg/L measured, 21 d, sig. ↑ vs control
  Hepatic VTG, male: 2,640 ± 1720 ng/mg‐liver
[5]; [6]
  Fertility rate: 78 ± 4.8%
  Number of fertilized eggs (per female per day): 16 ± 2.3
  Number of total eggs (per female per day): 20 ± 2.2
[5]; 21 d
  Fecundity, number of total eggs (in words): statistically significant decrease
  LOEC, elevated hepatic VTG in males: 1.90 mg/L
[5]; Figure 3C
  Daily fecundity on the first day: less than 10 eggs/female
[5]; LOEC on reproduction (fecundity and/or fertility)
  LOECREPRO: 9,750 μg/L
[5]; Oryzias latipes, 504 h, read-out: LOECmVTG
  minimal effective concentration: 1.9 µg/mL
[5]; concentrations without overt toxicity
  LOECREPRO (reduction in fecundity or fertility): 9,750 μg/L
[5]; lowest observed effect concentration on mortality
  LOECTOX: ND (>9,750) μg/L
[5]; [7]
  GSI Female: 11.0 ± 1.2%
  GSI Male: 0.74 ± 0.18%
  HSI Female: 4.4 ± 0.44%
  HSI Male: 2.1 ± 0.16%
  Length Female: 37.0 ± 1.3 mm
  Length Male: 36.0 ± 0.5 mm
  Weight Female: 589 ± 39 mg
  Weight Male: 514 ± 28 mg
[5]; [8]
  GSI Female: 11.0 ± 0.9%
  GSI Male: 0.81 ± 0.06%
  HSI Female: 4.7 ± 0.59%
  HSI Male: 2.4 ± 0.21%
  Length Female: 36.2 ± 1.2 mm
  Length Male: 36.4 ± 1.3 mm
  Weight Female: 574 ± 27 mg
  Weight Male: 530 ± 47 mg
[5]; [9]
  GSI Female: 9.8 ± 0.9%
  GSI Male: 0.69 ± 0.15%
  HSI Female: 5.4 ± 0.38%
  HSI Male: 2.3 ± 0.60%
  Length Female: 36.6 ± 1.4 mm
  Length Male: 36.2 ± 1.1 mm
  Weight Female: 603 ± 47 mg
  Weight Male: 504 ± 62 mg
